Experimental data taken from EP3165218A1, “WATER DISPERSIBLE GRANULATES CONTAINING OXIDIZED OR REDUCED FORMS OF COENZYME Q10” (INDENA S.p.A., priority 2015, dated 2017).

Assay: Water dispersability, visual evaluation
Type: physicochemical
Settings: quantity corresponding to 50 mg of Coenzyme Q10 in about 40 ml of tap water at room temperature; evaluated visually
Method: The water dispersability of the granulate of the invention was evaluated visually in comparison with unformulated Coenzyme Q10 administered as crystal powder. A quantity of the granulate of the invention corresponding to 50 mg of Coenzyme Q10 was dispersed in about 40 ml of tap water at room temperature. The product formed a very fine and homogeneous cloudy dispersion under mild agitation and no precipitation occurred.

In the case of `COC1=C(OC)C(=O)C(C/C=C(\C)CC/C=C(\C)CC/C=C(\C)CC/C=C(\C)CC/C=C(\C)CC/C=C(\C)CC/C=C(\C)CC/C=C(\C)CC/C=C(\C)CCC=C(C)C)=C(C)C1=O` [crystalline Coenzyme Q10, Coenzyme Q10], the water dispersability is reported as “the powder remained on the surface of water”.
